Data from patent publication US20250282760A1 (Merck Sharp & Dohme LLC, priority 2022, published 2025).

Target: T1, human OX2R (Homo sapiens, UniProt O43614)
T1 construct: expressed in transfected cells; host or cells: Chinese hamster ovary (CHO) cells, kept under G418 selection
T1 sequence (O43614 1-444): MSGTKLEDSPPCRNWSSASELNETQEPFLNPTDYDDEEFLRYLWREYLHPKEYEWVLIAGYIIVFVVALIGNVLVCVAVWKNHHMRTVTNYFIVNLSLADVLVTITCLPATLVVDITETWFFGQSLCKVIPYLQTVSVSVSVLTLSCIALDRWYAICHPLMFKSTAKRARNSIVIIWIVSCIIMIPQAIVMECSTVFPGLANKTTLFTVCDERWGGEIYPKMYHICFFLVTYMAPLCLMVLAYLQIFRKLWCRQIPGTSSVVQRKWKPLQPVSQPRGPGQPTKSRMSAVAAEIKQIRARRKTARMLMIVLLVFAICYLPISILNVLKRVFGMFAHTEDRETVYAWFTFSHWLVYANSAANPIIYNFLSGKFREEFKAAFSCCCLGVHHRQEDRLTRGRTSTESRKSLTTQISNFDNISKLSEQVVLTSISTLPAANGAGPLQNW
Assay: IPOne (IP-1 accumulation) assay of orexin receptor agonist activity in CHO cells expressing human OX2R
Type: cell-based
Conditions: for IC50: CHO cells expressing human OX2R, IP-One assay, 2 hours incubation, four parameter logistic fit, read-out: hOX2R_IP IC50; for Emax: CHO, percent activity at maximum tested concentration, relative to reference compound at 1 uM (100% activity) for human OX2R
From the text: The utility of the compounds in accordance with the present invention as orexin receptor OX1R and/or OX2R agonists may be readily determined without undue experimentation by methodology well known in the art. Both the OX1R and/or OX2R G-coupled protein receptors (GPCRs) couple through the Gαq signaling pathway, which ultimately promotes calcium mobilization via inositol triphosphate (IP3) production. […] The utility of the compounds in accordance with the present invention as orexin receptor OX1R and/or OX2R agonists may be determined utilizing this assay.
In a typical experiment, the OX1 and OX2 receptor agonist activity is determined in accordance with the following general experimental method. Chinese hamster ovary (CHO) cells expressing human OX1R and/or the human OX2R were grown in Iscove's modified DMEM containing glutaMAX™, 1% G418, 100 U/mL penicillin, 100 μg/mL streptomycin and 10% heat-inactivated qualified fetal bovine serum (FBS). […] During this incubation, IP-one detection reagents were prepared (38:1:1 lysis buffer:D2:AB-cryptate reagents).
For each compound, data were fit to a four parameter logistic fit (ActivityBase software) and the EC50 was reported as the inflection point of the resulting curve. Percent effect for each test compound was determined as the percentage of sample raw value/mean max effect, where the mean max effect was derived from the mean raw value of 32 control wells per assay plate (using Orexin A (cat #003-30) at 1 μM for human OX1R and a reference compound at 1 uM with 100% activity previously established by comparison to Orexin A for human OX2R). The intrinsic orexin receptor agonist activity of a compound which may be used in the present invention may be determined by these assays.

Row | Compound | IC50 | Emax
1 | CC(C)C(=O)N1[C@H](C)CN(S(=O)(=O)c2ccccc2)C[C@@H]1C(=O)NCc1ccc(-c2ncco2)cc1 (relative stereo) [Example 19-8, cis-1-isobutyryl-6-methyl-N-(4-(oxazol-2-yl)benzyl)-4-(phenylsulfonyl)piperazine-2-carboxamide] | 146 nM | 99.5%
2 | CC(C)C(=O)N1[C@H](C)CN(S(=O)(=O)c2ccccc2)C[C@@H]1C(=O)NCc1ccc(CC(C)(F)F)cc1 (single isomer, unassigned) [Example 66] | 2230 nM | 97.9%
3 | O=C(NCc1ccc2ccccc2c1)C1CN(S(=O)(=O)c2ccccc2Cl)CCN1C(=O)c1cccs1 (stereo not drawn) [Example 89-4, 4-[(2-chlorophenyl)sulfonyl]-N-[(naphthalen-2-yl)methyl]-1-(thiophene-2-carbonyl)piperazine-2-carboxamide] | 5280 nM | 75.5%
4 | CC(C)C(=O)N1[C@@H](C(=O)NCc2ccc(-c3ccco3)cc2)CN(S(=O)(=O)c2ccccc2)C[C@H]1C(F)(F)F (relative stereo) [Example 78, cis-N-(4-(furan-2-yl)benzyl)-1-isobutyryl-4-(phenylsulfonyl)-6-(trifluoromethyl)piperazine-2-carboxamide] | 2670 nM | 97.1%
5 | COc1cc(CNC(=O)[C@H]2CN(S(=O)(=O)c3ccccc3)C[C@@H](C)N2C(=O)C(C)C)ccc1-c1ccco1 (relative stereo) [Example 47-1, cis-N-(4-(furan-2-yl)-3-methoxybenzyl)-1-isobutyryl-6-methyl-4-(phenylsulfonyl)piperazine-2-carboxamide] | 19200 nM | 38.4%
6 | Cc1c(CNC(=O)[C@H]2CN(S(=O)(=O)c3ccccc3)C[C@@H](C)N2C(=O)C(C)C)ccc(-c2ccco2)c1F (relative stereo) [Example 51, cis-N-(3-fluoro-4-(furan-2-yl)-2-methylbenzyl)-1-isobutyryl-6-methyl-4-(phenylsulfonyl)piperazine-2-carboxamide] | 85.7 nM | 99.8%
7 | CC(C)C(=O)N1[C@H](C)CN(S(=O)(=O)c2ccccc2)C[C@@H]1C(=O)NCc1ccc(-c2ccco2)c(C#N)c1 (relative stereo) [Example 47-2, cis-N-(3-cyano-4-(furan-2-yl)benzyl)-1-isobutyryl-6-methyl-4-(phenylsulfonyl)piperazine-2-carboxamide] | 144 nM | 98.3%
8 | O=C(NCc1ccc2ccccc2c1)C1CN(S(=O)(=O)c2ccccc2)CCN1C(=O)C1CC1 (stereo not drawn) [Example 10-5, 1-(cyclopropanecarbonyl)-N-(naphthalen-2-ylmethyl)-4-(phenylsulfonyl)piperazine-2-carboxamide] | 8990 nM | 98.7%
9 | COc1cc(-c2ccco2)ccc1CNC(=O)[C@H]1CN(S(=O)(=O)c2ccccc2)C[C@@H](C)N1C(=O)C(C)C (relative stereo) [Example 47-4, cis-N-(4-(furan-2-yl)-2-methoxybenzyl)-1-isobutyryl-6-methyl-4-(phenylsulfonyl)piperazine-2-carboxamide] | 27.9 nM | 94.2%
10 | CC(C)C(=O)N1CCN(S(=O)(=O)c2ccccc2)CC1C(=O)NCc1ccc2ccccc2c1 (stereo not drawn) [Example 10-4, 1-isobutyryl-N-(naphthalen-2-ylmethyl)-4-(phenylsulfonyl)piperazine-2-carboxamide] | 2610 nM | 98.7%
11 | CC(C)C(=O)N1[C@H](C)CN(S(=O)(=O)c2ccccc2)C[C@@H]1C(=O)NCc1ccc(-c2ccco2)cc1F (relative stereo) [Example 32, cis-N-(2-fluoro-4-(furan-2-yl)benzyl)-1-isobutyryl-6-methyl-4-(phenylsulfonyl)piperazine-2-carboxamide] | 58.5 nM | 99.9%
12 | CC(C)C(=O)N1[C@H](C)CN(S(=O)(=O)c2ccccc2)C[C@@H]1C(=O)NCc1ccc(-c2nccs2)cc1 (relative stereo) [Example 19-6, cis-1-isobutyryl-6-methyl-4-(phenylsulfonyl)-N-(4-(thiazol-2-yl)benzyl)piperazine-2-carboxamide] | 81.3 nM | 98.7%
13 | O=C(NCc1ccc2ccccc2c1)C1CN(S(=O)(=O)c2ccc(F)cc2)CCN1C(=O)c1cccs1 (stereo not drawn) [Example 89-9, 4-[(4-fluorophenyl)sulfonyl]-N-[(naphthalen-2-yl)methyl]-1-(thiophene-2-carbonyl)piperazine-2-carboxamide] | 5510 nM | 89.6%
14 | CCC(F)(F)Oc1ccc(CNC(=O)[C@H]2CN(S(=O)(=O)c3ccccc3)C[C@@H](C)N2C(=O)C(C)C)cc1 (single isomer, unassigned) [Example 61, cis-N-(4-(1,1-difluoropropoxy)benzyl)-1-isobutyryl-6-methyl-4-(phenylsulfonyl)piperazine-2-carboxamide] | 100 nM | 93.2%
15 | CC(C)C(=O)N1[C@@H](C)CN(S(=O)(=O)c2ccccc2)C[C@H]1C(=O)NCc1ccc(OC(C)(F)F)cc1 (single isomer, unassigned) [Example 19-4-2] | 9100 nM | 95.6%
16 | O=C(NCc1ccc2ccccc2c1)C1CN(S(=O)(=O)c2ccccc2)CCN1C(=O)c1cncs1 (stereo not drawn) [Example 10-10, N-(naphthalen-2-ylmethyl)-4-(phenylsulfonyl)-1-(thiazole-5-carbonyl)piperazine-2-carboxamide] | 11700 nM | 93.9%
17 | CC(C)C(=O)N1[C@H](C)CN(S(=O)(=O)c2ccccc2)C[C@@H]1C(=O)NCc1cnc(-c2ccco2)cn1 (single isomer, unassigned) [Example 35, cis-N-((5-(furan-2-yl)pyrazin-2-yl)methyl)-1-isobutyryl-6-methyl-4-(phenylsulfonyl)piperazine-2-carboxamide] | 504 nM | 99.7%
18 | Cc1cc(-c2ccco2)cnc1CNC(=O)[C@H]1CN(S(=O)(=O)c2ccccc2)C[C@@H](C)N1C(=O)C(C)C (relative stereo) [Example 55, cis-N-((5-(furan-2-yl)-3-methylpyridin-2-yl)methyl)-1-isobutyryl-6-methyl-4-(phenylsulfonyl)piperazine-2-carboxamide] | 2980 nM | 93.5%
19 | CC[C@@H]1CN(S(=O)(=O)c2ccccc2)C[C@H](C(=O)NCc2ccc(-c3ccco3)cc2)N1C(=O)C(C)C (relative stereo) [Example 71, cis-6-ethyl-N-(4-(furan-2-yl)benzyl)-1-isobutyryl-4-(phenylsulfonyl)piperazine-2-carboxamide] | 244 nM | 100%
20 | O=C(NCc1ccc2ccccc2c1)C1CN(S(=O)(=O)c2ccccc2F)CCN1C(=O)c1cccs1 (stereo not drawn) [Example 89-11, 4-[(2-fluorophenyl)sulfonyl]-N-[(naphthalen-2-yl)methyl]-1-(thiophene-2-carbonyl)piperazine-2-carboxamide] | 5030 nM | 94.5%
21 | COc1ccc(S(=O)(=O)N2CCN(C(=O)c3cccs3)C(C(=O)NCc3ccc4ccccc4c3)C2)cc1 (stereo not drawn) [Example 89-7, 4-[(4-methoxyphenyl)sulfonyl]-N-[(naphthalen-2-yl)methyl]-1-(thiophene-2-carbonyl)piperazine-2-carboxamide] | 2600 nM | 99.7%
22 | O=C(NCc1ccc2ccccc2c1)C1CN(S(=O)(=O)c2ccccc2)CCN1C(=O)c1ccsc1 (stereo not drawn) [Example 10-8, N-(naphthalen-2-ylmethyl)-4-(phenylsulfonyl)-1-(thiophene-3-carbonyl)piperazine-2-carboxamide] | 4670 nM | 90%
23 | CC(C)C(=O)N1[C@H](C)CN(S(=O)(=O)c2ccccc2)C[C@@H]1C(=O)NCc1ccc(-c2ccccn2)cc1 (relative stereo) [Example 42-1, cis-1-isobutyryl-6-methyl-4-(phenylsulfonyl)-N-(4-(pyridin-2-yl)benzyl)piperazine-2-carboxamide] | 121 nM | 100%
24 | CC(C)C(=O)N1[C@H](C)CN(S(=O)(=O)c2ccccc2)C[C@@H]1C(=O)NCc1ccc(-c2ccccc2F)cc1 (relative stereo) [Example 21, cis-N-((2′-fluoro-[1,1′-biphenyl]-4-yl)methyl)-1-isobutyryl-6-methyl-4-(phenylsulfonyl)piperazine-2-carboxamide] | 92.2 nM | 90.7%
